Laboratory results: patent US7718768B2, “Biologically active peptide [sequence]” (CMS Peptides Patent Holding Company Limited, priority 2001, dated 2010)
Marks after values point to notes of the source that are not given here. No end group written: not given here.

Assays:
Assay type in all cases: in vivo, BALB/c mice
T lymphocyte [1] = test: T lymphocyte transformation test (ConA, MTT) on spleen cells of treated mice; set-up: key: OD of assay wells divided by OD of control wells; settings: IFN-γ and IL-2 groups 3×10^5 IU/kg/day, X ± SD
Procedure: (§1) The above substances were all dissolved in 0.5 ml saline and injected intraperitoneal (i.p.) for 15 continuous days, once per day.
(§2) Ten mice per group. The day after the last test substance administration, the mice were sacrificed by cervical dislocation. The spleen was isolated aseptically and manually dispersed in cold D-Hank's solution using an injection needle. The dispersed cell suspension was further sieved through a 100 gauge 150 μm diameter stainless steel sieve. After centrifugation at 200 g for 10 minutes, the supernatant was discarded. The cell pellet was re-suspended in 10 volume of Tris-NH4Cl buffer and then kept standing still for 10 minutes at room temperature. The suspended cells were collected by centrifugation at 150 g for 10 minutes. The cells were washed 2-4 times with cold D-Hank's solution by re-suspending and collecting by centrifugation with condition as described above. The washed cells were then diluted to the desired cell densities by RPMI-1640 culture medium, containing 10% fetal bovine serum.
(§3) Spleen cells of density 1×10^6/ml were placed onto a 96 wells cell culture plate, 100 μl/well, three parallel wells each of the assay sample and control sample per mouse. To the assay wells, 100 μl/well ConA of 100 μg/ml in RPMI-1640 was added, and 100 μl/well plain RPMI-1640 was used for the controls. The cells were incubated for 66 hrs at 37° C., 5% CO2. The cells were then pelleted by centrifugation at 150 g for 10 minutes.
50 μl/well MTT of 1 mg/ml in RPMI-1640 was added to the cell pellet and the cells re-suspended by shaking for 2 minutes. The incubation was continued for 4 hours. The supernatant was discarded after centrifugation at 150 g for 10 minutes. 120 μl 40 mM HCl-2-propanol was added to the cell pellet and shaken for 3 minutes. to obtain OD570nm of each well referenced at 630 nm. An ELISA reader was used
Each mouse formed three assay wells and three control wells. The Stimulation Index (SI) of each mouse was obtained by first deriving the average OD of the three parallel wells, then dividing the value of the assay wells by the control wells.

T lymphocyte [2] = test: T lymphocyte IL-2 secretion test (HT-2 cell bioassay of ConA supernatant); settings: IFN-γ and IL-2 groups 3×10^5 IU/kg/day, X ± SD
Procedure: as §1, §3
HT-2 cells at log phase were collected by centrifugation at 150 g for 10 minutes, and washed three times with cold Hank's solution by re-suspension and centrifugation. The collected HT-2 cells were re-suspended in RPMI-1640 and incubated at 37° C., 5% CO2 for 30 minutes. The cells were further washed twice with RPMI-1640 by re-suspension and centrifugation, and re-suspended to final concentration of 2×10^5/ml with RPMI-1640.
rIL-2 was diluted to the following concentration with RPMI-1640: 500 IU/ml, 250 IU/ml, 125 IU/ml, 62.5 IU/ml, 31.25 IU/ml, and […].
A 96 well cell culture plate was set up with three parallel wells per combination:
Negative control: 100 μl RPMI-1640+100 μl HT-2 cell suspension
rIL-2 standard: 100 μl rIL-2 solution+100 μl HT-2 cell suspension
Assay well: 100 μl diluted supernatant+100 μl HT-2 cell suspension
The plate was incubated at 37° C., 5% CO2 for 68 hours, then centrifuged at 150 g for 15 minutes and the supernatant removed. 100 μl 0.5 mg/ml MTT in RPMI-1640 without phenolsulfonphthalein was added into each well. After shaking for 3-4 minutes to re-suspend the cells, continue to incubate for another 4 hours. Samples were then centrifuged at 150 g for 15 minutes and the supernatant was removed. To each well, 120 μl 40 mM HCl-2-propanol was added, mixed for 3-4 minutes and OD analyzed at 570 nm, referenced at 630 nm with an ELISA plate reader.
The average OD of the three parallel wells of each dilution was taken and plotted against concentration on a semi-log paper, concentration on the X-axis. The concentration at 50% OD saturation was obtained for both the testing supernatant and rIL-2.

anti-SRBC antibody = test: Sheep Red Blood Cell (SRBC) hemolysis test, anti-SRBC antibody formation; settings: SRBC on day 12, IFN-γ and IL-2 groups 3×10^5 IU/kg/day, X ± SD
Procedure: Sheep red blood cells (SRBC) were prepared by collecting blood from cervical vein and put into a sterile flask with glass beads. The flask was shaken for 3 minutes and the blood then mixed with Alsever solution (glucose 2.05 g, NaCl 0.4 g, […] 0.8 g, adjust to 100 ml with distilled water) and stored at 4° C. Immediately before use, samples were centrifuged at 130 g, 5 minutes to collect the SRBC. The cells were washed two times by re-suspension and centrifugation in normal saline. Then the cell pellet was collected by centrifugation at 180 g for 10 minutes and re-suspended in saline to make the final working SRBC suspension, 2% (v/v).
Complement was prepared by adding 10 volumes of fresh Cavy serum into one volume centrifuge packed SRBC, and then gently shaking for 30 minutes at 4° C. The SRBC was removed by centrifugation at 200 g for 10 minutes. 10 volumes of normal saline were added to obtain the working complement solution.
The test substances were administered as described in section 1.1, plus intraperitoneal injection 0.2 ml SRBC per mouse on day 12. On the day after the last test substance administration (day 16), blood was collected from the eye canthus and left at room temperature for one hour for serum exudation. After centrifugation at 200 g for 10 minutes, the serum was diluted by 500 times with normal saline.
To 1 ml diluted mouse serum of each mouse, 0.5 ml SRBC suspension was added. Ice cold. Then 1 ml working complement solution was added and incubated at 37° C. water bath for 10 minutes. Reactions were terminated by ice cold. Samples were then centrifuged at 200 g for 10 minutes to obtain the supernatant.
To 1 ml of this supernatant, 3 ml Drabkin solution was added and left at room temperature for 10 minutes. OD540nm was obtained.
Reference OD540nm was obtained by mixing 0.25 ml SRBC suspension with Drabkin solution to 4 ml and placed at room temperature for 10 minutes before OD540nm was taken. Sample serum index=(OD540nm of test sample[…]reference OD540nm)×500 3. The Effect of Peptides on the Phagocytosis Function of Mononuclear Phagocyte and the Weight of Immune Organ^[8,9].

[3] = immunity organ weight test (thymus gland index, spleen index); settings: X ± SD
Procedure: as §1
(§4) One day after the last test substance administration (day 16), the liver, spleen, and thymus gland were separated and blotted dry with filter paper and weighed. The phagocytosis index α was calculated as below: α=(^3√K)(W÷WLS) key: W: body weight WLS: weight of liver plus spleen Thymus gland index(%)=(thymus weight/body weight)×100% Spleen index(%)=(spleen weight/body weight)×100%

NK cell = NK cell cytotoxicity activity test (YAC-1 target cells, MTT) on spleen cells of treated mice; settings: IFN-γ and IL-2 groups 3×10^5 IU/kg/day, X ± SD
Procedure: as §1, §2
Mice spleen cells were prepared to 4×10^6/ml as described in section 1.1 above. Target cells YAC-1 were brought to log phase and adjusted to 1×10^5/ml. Using a 96 wells cell culture plate, 100 μl mouse spleen cells and 100 μl culture medium were added to the control well containing only the spleen cells; 100 μl target cells and 100 μl culture medium were added to the control well containing only target cells; 100 μl mouse spleen cells and 100 μl target cells were added to the NK activity assay well. Three parallel sets of the above were prepared per mouse.
Samples were centrifuged at 150 g for 10 minutes to collect the cells. The supernatant was discarded and 50 μl/well MTT of 1 mg/ml was added. The reaction mixture was then shaken for 2 minutes, and incubated at 37° C., 5% CO2 for 4 hours. The supernatant was discarded after centrifugation at 150 g for 10 minutes. 120 μl 40 mM HCl-2-propanol was added and shaken for 3 minutes. An ELISA reader was used to obtain OD570nm of each well referenced at 630 nm.

mononuclear phagocyte = test: carbon particle clearance test, phagocytotic activity of mononuclear phagocyte; set-up: key: α = (cube root of K)×(body weight ÷ liver+spleen weight); settings: peptide 0.5 μg/kg/day i.p. 15 days; IFN-γ and IL-2 groups 3×10^5 IU/kg/day; X ± SD
Procedure: On the next day after the last test substance administration (day 16), the mice were injected with […] body weight India ink (5 times dilution with normal saline) from the tail vein.
One minute and five minutes after Indian ink injection, 20 μl blood was obtained from the eye can thus with a heparinized tubing. The blood was mixed with 2 ml 0.1% w/v Na2CO3 and then OD680nm obtained. The outline clear index K was calculated by the following formula: K=(lgA1−lgA2)÷(t2−t1) Key: A1: OD680nm at first minute A2: OD680nm at fifth minute t2: 5 minutes […]
as §4

[4] = peptide 5 μg/kg/day i.p. 15 days
[5] = peptide 500 μg/kg/day i.p. 15 days
[6] = peptide 50 μg/kg/day i.p. 15 days
[7] = peptide 0.5 μg/kg/day i.p. 15 days
[8] = peptide 0.5 μg/kg/day i.p. 15 days, IFN-γ and IL-2 groups 3×10^5 IU/kg/day
[9] = peptide 5 μg/kg/day i.p. 15 days, IFN-γ and IL-2 groups 3×10^5 IU/kg/day
[10] = peptide 50 μg/kg/day i.p. 15 days, IFN-γ and IL-2 groups 3×10^5 IU/kg/day
[11] = peptide 500 μg/kg/day i.p. 15 days, IFN-γ and IL-2 groups 3×10^5 IU/kg/day

| Substance | stimulation index (T lymphocyte transformation) (T lymphocyte [1]; [4]) | stimulation index (T lymphocyte transformation) (T lymphocyte [1]; [5]) | activity of T lymphocyte in secreting IL-2 (T lymphocyte [2]; [4]) [IU] | activity of T lymphocyte in secreting IL-2 (T lymphocyte [2]; [5]) | anti-SRBC antibody formation (sample serum index) (anti-SRBC antibody; [4]) | anti-SRBC antibody formation (sample serum index) (anti-SRBC antibody; [5]) | weight of spleen (spleen index) [3, 5] [%] | stimulation index (T lymphocyte transformation) (T lymphocyte [1]; [6]) | NK cell cytotoxic activity (NK cell activity index) (NK cell; [7]) [%] | anti-SRBC antibody formation (sample serum index) (anti-SRBC antibody; [7]) | weight of thymus gland (thymus gland index) [3, 8] | weight of thymus gland (thymus gland index) [3, 9] | weight of thymus gland (thymus gland index) [3, 10] | NK cell cytotoxic activity (NK cell activity index) (NK cell; [5]) [%] | anti-SRBC antibody formation (sample serum index) (anti-SRBC antibody; [6]) | weight of thymus gland (thymus gland index) [3, 11] | NK cell cytotoxic activity (NK cell activity index) (NK cell; [6]) [%] | weight of spleen (spleen index) [3, 10] [%] | phagocytotic index (mononuclear phagocyte) |
| --- | --- | --- | --- | --- | --- | --- | --- | --- | --- | --- | --- | --- | --- | --- | --- | --- | --- | --- | --- |
| Ala Gly Asp Asp Ala Pro Arg Ala Val Phe (AGDDAPRAVF; listed as Sus scrofa) [CMS007] | 1.7 ± 0.1 | 1.6 ± 0.1 | 64 ± 12 | 86 ± 15*^ IU | 122 ± 12*^@^ Unit | 69 ± 17*^@ Unit | 0.32 ± 0.05 |  |  |  |  |  |  |  |  |  |  |  |  |
| VVYPWTQRF [CMS002] |  | 1.8 ± 0.3 |  |  |  | 87 ± 18*^@ Unit |  | 2.6 ± 0.3*^@^ | 76 ± 9 | 4 ± 1* Unit | 0.26 ± 0.06*^@^ % | 0.24 ± 0.05*^ % | 0.21 ± 0.02*^@^ % |  |  |  |  |  |  |
| Phe Glu Ser Phe (FESF; listed as Sus scrofa) [CMS033] |  |  |  |  | 128 ± 39*^@^ Unit | 143 ± 27*^@^ Unit |  |  |  | 78 ± 12*^@ Unit |  | 0.20 ± 0.02 % | 0.18 ± 0.03 % | 89 ± 8 | 112 ± 15*^@^ Unit | 0.25 ± 0.04*^@^ % |  |  |  |
| TTYNSIM [CMS026] |  |  |  |  | 191 ± 17*^@^ Unit |  |  |  |  | 19 ± 6* Unit | 0.21 ± 0.05 % | 0.31 ± 0.05*^@^ % | 0.27 ± 0.02*^@^ % | 89 ± 7 | 98 ± 9*^@^ Unit | 0.20 ± 0.03*^ % | 76 ± 9 |  |  |
| Ala Ala Phe [CMS023] |  |  |  |  | 166 ± 27*^@^ Unit | 110 ± 45*^@^ Unit | 0.36 ± 0.06 |  |  | 108 ± 21*^@^ Unit |  | 0.23 ± 0.06 % | 0.20 ± 0.02*^@^ % | 79 ± 12 | 84 ± 11*^@^ Unit |  |  |  |  |
| Phe Asn Glu Glu (FNEE; listed as Sus scrofa) [CMS029] |  | 1.7 ± 0.3 |  |  | 147 ± 23*^@^ Unit | 115 ± 22*^@^ Unit |  |  |  | 18 ± 7* Unit |  | 0.21 ± 0.03 % | 0.18 ± 0.05 % | 87 ± 4 | 143 ± 13*^@^ Unit | 0.22 ± 0.04*^@^ % |  | 0.42 ± 0.04 |  |
| Phe Glu Glu Asn Met (FEENM; listed as Sus scrofa) [CMS027] |  |  |  |  | 117 ± 45*^@^ Unit |  | 0.37 ± 0.03 |  |  | 99 ± 14*^@^ Unit |  |  | 0.21 ± 0.03*^@^ % | 88 ± 8 | 93 ± 11*^@^ Unit | 0.20 ± 0.03*^ % |  |  | 6.4 ± 0.6 |
